“And” between values parts separate entries of the source, which are not always exact repeats. Equal entries are not always repeated. Toxic doses and inconclusive results are not listed.
Tested on: L1210 leukemia ip in BDF1 mice, survival T/C
Assay: NCI In Vivo Anticancer Drug Screen. Data for tumor model L1210 Leukemia (intraperitoneal) in B6D2F1 (BDF1) mice
Settings: endpoint: mean survival time, higher = longer survival
How it was run: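 Transplantable tumor model; survival measured in treated vs vehicle control mice. Value = treated/control.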

[1] = dose: 50.0 mg/kg/injection, schedule: Q01DX009 (ip), vehicle: saline with Tween-80
[2] = dose: 100.0 mg/kg/injection, schedule: Q01DX009 (ip), vehicle: saline with Tween-80
[3] = dose: 100.0 mg/kg/injection, schedule: Q04DX002 (ip), vehicle: saline with Tween-80
[4] = dose: 200.0 mg/kg/injection, schedule: Q04DX002 (ip), vehicle: saline with Tween-80
[5] = dose: 100.0 mg/kg/injection, schedule: Q04DX003 (ip), vehicle: Klucel (hydroxypropylcellulose) (HPC)
[6] = dose: 200.0 mg/kg/injection, schedule: Q04DX003 (ip), vehicle: Klucel (hydroxypropylcellulose) (HPC)
[7] = dose: 400.0 mg/kg/injection, schedule: Q04DX003 (ip), vehicle: Klucel (hydroxypropylcellulose) (HPC)
[8] = dose: 50.0 mg/kg/injection, schedule: Q04DX003 (ip), vehicle: saline with Tween-80
[9] = dose: 100.0 mg/kg/injection, schedule: Q04DX003 (ip), vehicle: saline with Tween-80
[10] = dose: 200.0 mg/kg/injection, schedule: Q04DX003 (ip), vehicle: saline with Tween-80
[11] = dose: 400.0 mg/kg/injection, schedule: Q04DX003 (ip), vehicle: saline with Tween-80
[12] = dose: 100.0 mg/kg/injection, schedule: Q04DX002 (ip), vehicle: saline
[13] = dose: 100.0 mg/kg/injection, schedule: Q01DX001 (ip), vehicle: saline
[14] = dose: 200.0 mg/kg/injection, schedule: Q01DX001 (ip), vehicle: saline
[15] = dose: 400.0 mg/kg/injection, schedule: Q01DX001 (ip), vehicle: saline
[16] = dose: 50.0 mg/kg/injection, schedule: Q01DX009 (ip), vehicle: Klucel (hydroxypropylcellulose) (HPC)
[17] = dose: 100.0 mg/kg/injection, schedule: Q01DX009 (ip), vehicle: Klucel (hydroxypropylcellulose) (HPC)

## CC1(C)C2CC=C(CCOC(=O)COc3cc(Cl)c(Cl)cc3Cl)C1C2 (configuration not stated)
dose: 160.0 mg/kg/injection, schedule: Q01DX Z (ip), vehicle: other
  T/C: 105 % of control
dose: 240.0 mg/kg/injection, schedule: Q01DX Z (ip), vehicle: other
  T/C: 109 % of control
dose: 350.0 mg/kg/injection, schedule: Q01DX Z (ip), vehicle: other
  T/C: 88 % of control

## COC(=O)Nc1cc2c3c(c1)CCCN3CCC2
[1]
  T/C: 91 % of control
[2]
  T/C: 96 % of control

## N#CCC(=O)NCc1ccco1
[1]
  T/C: 106 % of control
[2]
  T/C: 103 % of control
[3]
  T/C: 104 % of control
[4]
  T/C: 114 % of control

## O=[N+]([O-])c1ccc(Oc2cccc(C(F)(F)F)c2)cc1
[5]
  T/C: 95 % of control
[6]
  T/C: 96 % of control
[7]
  T/C: 96 % of control

## CCOCC1c2ccccc2CCN1Cc1c[nH]c2ccccc12 (configuration not stated)
dose: 50.0 mg/kg/injection, schedule: Q01DX001 (ip), vehicle: carboxymethylcellulose (CMC)
  T/C: 97 % of control
dose: 100.0 mg/kg/injection, schedule: Q01DX001 (ip), vehicle: carboxymethylcellulose (CMC)
  T/C: 89 % of control
dose: 200.0 mg/kg/injection, schedule: Q01DX001 (ip), vehicle: carboxymethylcellulose (CMC)
  T/C: 90 % of control

## O=C(Nc1ncccn1)c1ccc(Cl)cc1Cl
[8]
  T/C: 93 % of control
dose: 100.0 mg/kg/injection, schedule: Q01DX001 (ip), vehicle: saline with Tween-80
  T/C: 103 % of control
[2]
  T/C: 102 % of control
[3]
  T/C: 93 % of control and 91 % of control
[9]
  T/C: 94 % of control and 100 % of control
dose: 200.0 mg/kg/injection, schedule: Q01DX001 (ip), vehicle: saline with Tween-80
  T/C: 96 % of control
dose: 200.0 mg/kg/injection, schedule: Q01DX009 (ip), vehicle: saline with Tween-80
  T/C: 102 % of control
[4]
  T/C: 104 % of control
[10]
  T/C: 91 % of control
dose: 400.0 mg/kg/injection, schedule: Q01DX001 (ip), vehicle: saline with Tween-80
  T/C: 96 % of control
dose: 400.0 mg/kg/injection, schedule: Q01DX009 (ip), vehicle: saline with Tween-80
  T/C: 100 % of control
dose: 400.0 mg/kg/injection, schedule: Q04DX002 (ip), vehicle: saline with Tween-80
  T/C: 105 % of control and 107 % of control
[11]
  T/C: 103 % of control and 92 % of control

## COC(=O)c1cc(C(C)=O)nc2ccccc12
[9]
  T/C: 94 % of control
[10]
  T/C: 99 % of control
[11]
  T/C: 90 % of control

## C[S+]1CCC(N)C(=O)C1 (configuration not stated)
dose: 12.5 mg/kg/injection, schedule: Q04DX002 (ip), vehicle: saline
  T/C: 103 % of control
dose: 25.0 mg/kg/injection, schedule: Q04DX002 (ip), vehicle: saline
  T/C: 120 % of control
dose: 50.0 mg/kg/injection, schedule: Q04DX002 (ip), vehicle: saline
  T/C: 113 % of control and 91 % of control
[12]
  T/C: 103 % of control

## O=[N+]([O-])c1ccc2nocc2c1
[5]
  T/C: 95 % of control

## O=S1(=O)C(Cl)=C(Cl)C2C3CC(C(Cl)C3Cl)C21 (configuration not stated)
dose: 50.0 mg/kg/injection, schedule: Q01DX009 (ip), vehicle: acetone
  T/C: 95 % of control
dose: 100.0 mg/kg/injection, schedule: Q01DX009 (ip), vehicle: acetone
  T/C: 93 % of control
dose: 100.0 mg/kg/injection, schedule: Q04DX003 (ip), vehicle: acetone
  T/C: 92 % of control
dose: 200.0 mg/kg/injection, schedule: Q01DX009 (ip), vehicle: acetone
  T/C: 98 % of control
dose: 200.0 mg/kg/injection, schedule: Q04DX003 (ip), vehicle: acetone
  T/C: 101 % of control
dose: 400.0 mg/kg/injection, schedule: Q04DX003 (ip), vehicle: acetone
  T/C: 92 % of control

## C[P+](C)(c1ccccc1)c1ccccc1
dose: 3.12 mg/kg/injection, schedule: Q01DX009 (ip), vehicle: saline with Tween-80
  T/C: 108 % of control
dose: 6.25 mg/kg/injection, schedule: Q01DX009 (ip), vehicle: saline with Tween-80
  T/C: 101 % of control
dose: 12.5 mg/kg/injection, schedule: Q01DX009 (ip), vehicle: saline with Tween-80
  T/C: 97 % of control
dose: 12.5 mg/kg/injection, schedule: Q04DX003 (ip), vehicle: saline with Tween-80
  T/C: 102 % of control

## CC(C)(C)C(=O)CS(=O)(=O)C(Br)C(=O)C(C)(C)C (configuration not stated)
[5]
  T/C: 100 % of control

## COc1cc(N)c([N+](=O)[O-])c(OC)c1
dose: 25.0 mg/kg/injection, schedule: Q01DX009 (ip), vehicle: saline with Tween-80
  T/C: 98 % of control
[1]
  T/C: 104 % of control
[2]
  T/C: 100 % of control
[9]
  T/C: 106 % of control

## CCC(C)(CO)N=Cc1ccccc1O.CCC(C)(O)/N=C/c1ccccc1O.[Cu].[Cu] (configuration not stated)
dose: 9.5 mg/kg/injection, schedule: Q01DX001 (ip), vehicle: other
  T/C: 100 % of control
dose: 19.0 mg/kg/injection, schedule: Q01DX001 (ip), vehicle: other
  T/C: 97 % of control
dose: 38.0 mg/kg/injection, schedule: Q01DX001 (ip), vehicle: other
  T/C: 86 % of control

## CC(C)C(C(=O)O)N(C)C(=O)c1cnc2ccccc2n1 (configuration not stated)
[13]
  T/C: 105 % of control
[14]
  T/C: 109 % of control
[15]
  T/C: 103 % of control

## CCC(C)(C1CCC(O)CC1)C1CCC(O)CC1 (configuration not stated)
[13]
  T/C: 94 % of control
[14]
  T/C: 96 % of control
[15]
  T/C: 98 % of control

## CC(O)(CCc1ccccc1)CC(O)(C(F)(F)F)C(F)(F)F (configuration not stated)
[9]
  T/C: 101 % of control
[10]
  T/C: 94 % of control
[11]
  T/C: 95 % of control

## CCCCCCCC[n+]1ccc(C#N)cc1
dose: 18.8 mg/kg/injection, schedule: Q04DX003 (ip), vehicle: saline
  T/C: 97 % of control
dose: 37.5 mg/kg/injection, schedule: Q04DX003 (ip), vehicle: saline
  T/C: 100 % of control
dose: 75.0 mg/kg/injection, schedule: Q01DX001 (ip), vehicle: saline
  T/C: 96 % of control
dose: 75.0 mg/kg/injection, schedule: Q04DX003 (ip), vehicle: saline
  T/C: 100 % of control

## COC(=O)c1ccc[n+](C)c1
[12]
  T/C: 104 % of control
dose: 200.0 mg/kg/injection, schedule: Q04DX002 (ip), vehicle: saline
  T/C: 101 % of control

## O=C(CNCc1ccccc1)NC(Cc1ccccc1)c1ccccc1 (configuration not stated)
[5]
  T/C: 96 % of control
[9]
  T/C: 101 % of control
[6]
  T/C: 93 % of control
[10]
  T/C: 94 % of control
[7]
  T/C: 94 % of control
[11]
  T/C: 94 % of control

## CCOC(=O)C(C(=O)OCC)C(=O)c1cc(-c2ccc(Cl)c(Cl)c2)nc2c(Cl)cc(Cl)cc12
[16]
  T/C: 98 % of control
[17]
  T/C: 104 % of control
[5]
  T/C: 101 % of control
[6]
  T/C: 109 % of control

## Cc1ccc(C(CCC#N)OC(C)C)cc1 (configuration not stated)
[17]
  T/C: 95 % of control
[5]
  T/C: 96 % of control
dose: 200.0 mg/kg/injection, schedule: Q01DX009 (ip), vehicle: Klucel (hydroxypropylcellulose) (HPC)
  T/C: 92 % of control
[6]
  T/C: 101 % of control
dose: 400.0 mg/kg/injection, schedule: Q01DX009 (ip), vehicle: Klucel (hydroxypropylcellulose) (HPC)
  T/C: 97 % of control
[7]
  T/C: 92 % of control

## CN=NNc1ccccc1
dose: 12.0 mg/kg/injection, schedule: Q01DX009 (ip), vehicle: saline
  T/C: 114 % of control
dose: 12.5 mg/kg/injection, schedule: Q01DX009 (ip), vehicle: Klucel (hydroxypropylcellulose) (HPC)
  T/C: 100 % of control
dose: 18.0 mg/kg/injection, schedule: Q01DX009 (ip), vehicle: saline
  T/C: 118 % of control
dose: 25.0 mg/kg/injection, schedule: Q01DX009 (ip), vehicle: Klucel (hydroxypropylcellulose) (HPC)
  T/C: 97 % of control
[16]
  T/C: 102 % of control
dose: 75.0 mg/kg/injection, schedule: Q04DX003 (ip), vehicle: saline with Tween-80
  T/C: 113 % of control
[17]
  T/C: 156 % of control
[9]
  T/C: 121 % of control
dose: 150.0 mg/kg/injection, schedule: Q04DX003 (ip), vehicle: saline with Tween-80
  T/C: 164 % of control
dose: 337.0 mg/kg/injection, schedule: Q04DX003 (ip), vehicle: saline with Tween-80
  T/C: 153 % of control

## Oc1ccc(-c2cc(O)c(-c3ccc(O)cc3)cc2O)cc1
dose: 100.0 mg/kg/injection, schedule: Q01DX009 (ip), vehicle: saline
  T/C: 95 % of control

## CC(C)(C)CCSC(=N)N
dose: 25.0 mg/kg/injection, schedule: Q04DX003 (ip), vehicle: saline with Tween-80
  T/C: 98 % of control
[8]
  T/C: 102 % of control
[9]
  T/C: 96 % of control

## O=c1[nH]c2cc3ccccc3cc2c2ccccc12
[13]
  T/C: 109 % of control
[14]
  T/C: 95 % of control
[15]
  T/C: 100 % of control

Reference: PubChem BioAssay AID248 (DTP/NCI, 2004)
